Patent US20250127768A1, “THERAPEUTIC TARGETING OF INOSITOL PYROPHOSPHATE SYNTHESIS IN CANCER” (The Broad Institute, Inc., priority 2022, published 2025)

Columns and labels:
[1] = tested on: XPR1-dependent cell lines (RMGI); test: phosphate efflux in ovarian cancer cell line (FIG. 6A); assay type: cell-based; conditions: as compared to RBD (protein inhibitor of XPR1)
Description: (§1) FIG. 6A-FIG. 6B—IP6K inhibitors. FIG. 6A. Graph showing phosphate efflux in an ovarian cancer cell line treated with TNP or RBD_00. FIG. 6B. Graph showing cell viability in an ovarian cancer cell line treated with TNP or RBD_00 and the indicated CRISPR guide sequences.

ovarian cancer cell line = test: cell viability in ovarian cancer cell line with CRISPR guide sequences (FIG. 6B); assay type: cell-based; conditions: high doses; specificity to XPR1-dependent cell lines
Description: as §1

Question: Which results are given for `O=[N+]([O-])c1ccc(CNc2nc(NCc3cccc(C(F)(F)F)c3)nc3nc[nH]c23)cc1` [TNP, N2-(m-(trifluoromethyl)benzyl) N6-(p-nitrobenzyl)purine]?
Answer: phosphate efflux [1]: did not observe a decrease in phosphate efflux; proliferation effects (ovarian cancer cell line): Proliferation effects were observed at high doses of TNP, but the effects were not specific to XPR1-dependent cell lines
